Reference: PMC6482174, “Fragment-based screening identifies inhibitors of ATPase activity and of hexamer formation of Cagα from the Helicobacter pylori type IV secretion system” (Scientific Reports, 2019)
pIC50: −log10 of the molar value.

Legend:
Cagα ATPase activity = Cagα ATPase activity (Helicobacter pylori, UniProt G5EB02); test: Malachite green ATPase activity assay; type: biochemical; settings: for Mechanism of inhibition: inhibitor 0 to 500 μM, ATP varied, only Vmax affected, Km constant
Chain of Cagα ATPase activity (G5EB02 entry or part of it): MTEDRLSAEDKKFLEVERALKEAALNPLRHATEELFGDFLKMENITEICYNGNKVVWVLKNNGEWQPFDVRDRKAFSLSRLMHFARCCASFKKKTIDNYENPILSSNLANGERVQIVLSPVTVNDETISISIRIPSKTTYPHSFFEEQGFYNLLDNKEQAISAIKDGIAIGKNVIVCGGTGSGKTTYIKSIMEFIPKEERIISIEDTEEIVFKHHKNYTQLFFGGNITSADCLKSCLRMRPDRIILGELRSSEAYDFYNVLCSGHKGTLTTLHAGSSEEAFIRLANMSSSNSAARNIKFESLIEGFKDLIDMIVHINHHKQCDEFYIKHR
Protocol: We used a Malachite green assay to measure the release of inorganic phosphate from ATP to assess whether the 16 binding fragments impact the enzymatic activity of Cagα. […] Therefore, the mechanism of inhibition by molecules 1G2 and 1G2#4 is non-competitive.
The ATPase activity was quantified using a malachite green binding assay. The 100 μL reaction mixtures contained 25 mM HEPES (pH 7.5), 100 mM NaCl, 60 nM of enzyme and 200 µM of MgCl2 with different concentrations of ATP (0 µM–320 µM) to determine kinetic parameters. The reaction mixtures were incubated for 30 min at 30 °C and then 40 μL of malachite green assay mixture was added. The formation of the blue phosphomolybdate-malachite green complex was in linear relation to the amount of released inorganic phosphate and measured at 610 nm. To study the mechanism of inhibition, the concentrations of inhibitors were varied between 0 and 500 μM with different concentrations of ATP (0–40 μM). Initial velocity data were fit using nonlinear regression analysis to each of the equations describing partial and full models of competitive, uncompetitive, non-competitive, and mixed inhibition using the Enzyme Kinetics Module of SigmaPlot (SigmaPlot version 11.0 software). On the basis of the analysis of fits through “goodness-of-fit” statistics, the full non-competitive inhibition model was determined with the equation ν = Vmax/[(1 + [I]/Ki) × (1 + Km/[S])], where [S] = [ATP], [I] = [1G2].
IC50 values were determined by incubating different concentrations of molecules (10–1,000 µM; from stocks of 200 mM) with enzyme in 25 mM HEPES (pH 7.5) and 100 mM NaCl. Mixtures were incubated with inhibitors for 15 min, followed by addition of ATP and incubation for 30 min at 37 °C. The reactions were stopped by addition of 40 µl malachite green solution and the inorganic phosphate released was determined at 610 nm. Data were plotted as 1/rate versus inhibitor concentration for each substrate concentration and a linear fit was calculated by non-linear regression using SigmaPlot (version 11.0).

[1] = system: tyrosine phosphorylation of the T4SS-translocated virulence factor CagA; test: CagA transfer into AGS cells / CagA tyrosine phosphorylation (western blot); type: cell-based, Helicobacter pylori; settings: H. pylori pre-incubated with molecule, AGS infection
Description: (§1) Finally, we assessed whether molecule 1G2 or its derivates impact the functionality of the T4SS in vivo. To this effect, we tested their impact on the interaction of H. pylori strain 26695 with gastric adenocarcinoma (AGS) cells. […] We then tested the effects of these molecules in two commonly used assays for downstream effects of T4SS function: IL-8 production and CagA phosphorylation. […] In contrast, derivates 1G2#1 to #6 have no effect on IL-8 production. Similarly, none of the molecules reduces the tyrosine phosphorylation of the T4SS-translocated virulence factor CagA, which is generally used as an alternative assay to measure T4SS function (Supplementary Fig. 8). […] This observation may be due to partial inhibition of T4SS function by 1G2 that is more readily quantifiable in the IL-8 production assay as compared to the CagA phosphorylation assay.
Preceding the infection, an overnight culture of H. pylori was pre-incubated with 1G2 and its derivates for 30 min. AGS cells at 6 × 10^5 cells/well density in 6-well plates were infected with the pre-treated cultures of H. pylori for 3–6 h at a multiplicity of infection of 100:1. […]
Western blot analyses were reproduced four times and intensities of the CagAPY signals were quantified (Image Lab TM Software) and normalized using anti -b-actin signals. […]

H. pylori 26695 = test: H. pylori growth on solid agar media (Whatman paper disks); type: cell-based, Helicobacter pylori; settings: 72 h
Description: as §1
AGS cell viability was monitored using Cell Proliferation Reagent WST-1 (Sigma). To evaluate the sensitivity of H. pylori to 1G2 and its derivates, freshly harvested bacteria were spread on a 150-mm agar plate. Increasing concentrations of compounds (50–500 μM) were spotted onto Whatman paper disks and growth was observed after 72 h incubation at 37 °C under microaerophilic conditions and compared to antibiotics (50–250 μM).
Supplementary Figure 6. Effects of molecule 1G2 and its derivates on H. pylori growth. […]

[2] = system: IL-8 production by AGS cells upon co-cultivation with H. pylori; test: IL-8 induction in AGS cells co-cultivated with H. pylori (ELISA); type: cell-based, Helicobacter pylori; settings: 200 μM
Description: as §1
Figure 6 Molecule 1G2 decreases IL-8 induction in co-cultivated AGS cells. H. pylori 26695 without and after pre-incubation with 1G2 and its derivatives for […]. AGS cells were then co-cultured with H. pylori overnight and IL-8 induction was measured by ELISA. The induction of IL-8 by the wild type was calculated as 100% (WT), induction of IL-8 by the ΔcagV strain was used as negative control. The data represent the results from three experiments. […]

SMILES	pIC50 (Cagα ATPase activity)	Mechanism of inhibition (Cagα ATPase activity)	Effect on tyrosine phosphorylation of CagA [1]	Effect on growth of H. pylori on solid agar media (H. pylori 26695; concentrations up to 500 μM)	IL-8 production, of the control ([2]; wild type without molecule = 100%)	Effect on growth of H. pylori (control antibiotic) (H. pylori 26695; several concentrations on Whatman paper disks)	Effect on IL-8 production (in words) [2]
O=C(O)c1ccc(Oc2ccccn2)cc1 [1G2]	3.71	non-competitive	did not observe an effect	no negative effect	about 50%		
O=C(N[C@H](CO)[C@H](O)c1ccc([N+](=O)[O-])cc1)C(Cl)Cl [chloramphenicol, reference compound]						inhibition of growth	
Cc1ccc(Oc2ccc(C(=O)O)cc2)nc1 [1G2#4]	4.09	non-competitive	no effect				no effect
